Reference: the SangsterLogP compilation
One block for each compound: values may come before it.

Assay: method code SF-TN, from DOI: 10.1021/jm00251a007, PMID: 4151492

Compound: CC(C)NCC(O)COc1cccc(OCC(O)CNC(C)C)c1 (stereo unspecified)
logP: 0.73

Compound: CC(C)NCC(O)COc1cccc2cccc(OCC(O)CNC(C)C)c12 (stereo unspecified)
logP: 1.37

Compound: CC(C)NCC(O)COc1ccc(OCC(O)CNC(C)C)cc1 (stereo unspecified)
logP: 0.67

Compound: CC(C)NCC(O)COc1cc(OCC(O)CNC(C)C)c2ccccc2c1 (stereo unspecified)
logP: 0.99

Compound: CC(C)NCC(O)COc1ccc2ccccc2c1OCC(O)CNC(C)C (stereo unspecified)
logP: 1.07

Other lines, results leading:

logP: 0.93
Compound: CC(C)NCC(O)COc1ccc(OCC(O)CNC(C)C)c2ccccc12 (stereo unspecified)

logP: 0.63
Compound: CC(C)NCC(O)COc1ccccc1OCC(O)CNC(C)C (stereo unspecified)

logP: 1.76
Compound: CC(C)NCC(O)COc1ccccc1 (stereo unspecified)

logP: 0.97
Compound: CC(C)NCC(O)COc1ccccc1-c1ccccc1OCC(O)CNC(C)C (stereo unspecified)

logP: 0.98
Compound: CC(C)NCC(O)COc1cccc2c(OCC(O)CNC(C)C)cccc12 (stereo unspecified)

logP: 0.87
Compound: CC(C)NCC(O)COc1ccc2c(OCC(O)CNC(C)C)cccc2c1 (stereo unspecified)
